The record followed here is US11292788B2, “IL-17 and IFN-gamma inhibition for the treatment of autoimmune diseases and chronic inflammation” (Immunic AG, priority 2017, dated 2022).

Values after ≈ are worked out from the molar mass of the structure shown. Like-named read-outs stand apart in the source and are kept apart here. Where only a bound is given, the exact number is not on record here.

Data set [1] in a line: Aqueous solubility in 50 mM phosphate buffer (HPLC/DAD). Particulars: 50 mM phosphate buffer, 23 °C, pH 7.4, aqueous buffer, kinetic from dmso stock, aqueous solubility class; read-out: aq. solub. The class given is physicochemical. The method, then: To achieve this, the samples (final volume 500 μl, 200 μM compound concentration) were incubated for 24 hours at 23° C. under continuous shaking at 1400 rpm (Thermomixer, Eppendorf) in aqueous phosphate buffers (pH 4.0, 6.0, 7.4 and 9.0) with a final DMSO concentration of 1%. To separate the undissolved compound from the solution, the samples were centrifuged (30 min 18000 g at 23° C.). Supernatants were measured via HPLC equipped with a UV detector and concentrations were calculated according to signals of a standard curve. The standard curve was prepared by diluting a stock solution of each compound (c=0.1 mg/ml; received by adding 10 μl of 20 mM compound in DMSO to 914 μl MeCN) in a certain amount of MeCN to cover a range of 0.1 to 200 μg/ml.

Data set [2] deals with INF-γ. In words: Cytokine assay: INF-γ production by human PBMC stimulated with PHA. Particulars: Homo sapiens, PBMC, IC50 class, read-out: IFN-gamma Inhib. The class given is cell-based. The method in brief: (§1)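 Compounds were titrated semilogarithmically for IC50, or screened at 10, 1, 0.1 and 0.01 μM, on healthy-donor PBMC stimulated for 48 h with 2 μg/ml PHA at 1×10^5 cells/well. Cytokines in culture supernatants were then quantified by ELISA or Luminex bead assay.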

In data set [3] the test system is IL-17F. In words: Cytokine assay: IL-17F production by human PBMC stimulated with PHA. The class given is cell-based. Particulars: IC50 class, read-out: IL-17F Inhib. Summed up: as §1
Data set [4] relates to IL-17A. As to the kind of experiment: Cytokine assay: IL-17A production by human PBMC stimulated with PHA. Particulars: IC50 class, read-out: IL-17A Inhib. It counts as cell-based. The method in brief: as §1
Data set [5] is described as follows: Microsomal stability: incubation with human liver microsomes, residual parent compound by HPLC-MS/MS. Particulars: up to 60 min, read-out: t1/2 hLM. The class given is in vitro ADME. Summed up:
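Compound at 1 μM final with 0.5 mg/ml pooled human liver microsomes and NADPH regenerating system, 0.1 M potassium phosphate pH 7.4, 0.4% DMSO, 37° C, sampled up to 60 min. Residual parent measured by HPLC-MS/MS; half-life and clearance from slope of remaining % of T0.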

Setting [6] is: human liver microsomes 0.5 mg/ml, compound 1 μM, pH 7.4, 37° C.

With `CCOC(=O)c1c(-c2c(F)cccc2Cl)noc1-c1cnn(CC(O)CC)c1C(F)(F)F` (racemic) [Example 14, ethyl 3-(2-chloro-6-fluorophenyl)-5-[1-(2-hydroxybutyl)-5-(trifluoromethyl)-1H-pyrazol-4-yl]-1,2-oxazole-4-carboxylate], the solubility at 24 h in data set [1] lay within 3 to 9.99 µM (≈ 1.43 to 4.75 µg/mL). The IC50 in data set [2] was less than 50 nM; in data set [3] (Homo sapiens, PBMC), less than 50 nM; in data set [4] (Homo sapiens, PBMC), less than 50 nM. The half-life at 1 μM in data set [5] (setting [6]) lay within 10 to 40 min.
In the case of `CCOC(=O)c1c(-c2c(F)cccc2Cl)noc1-c1cnn(CC(O)C(F)(F)F)c1C(F)(F)F` (racemic) [Example 15, ethyl 3-(2-chloro-6-fluorophenyl)-5-[1-(3,3,3-trifluoro-2-hydroxypropyl)-5-(trifluoromethyl)-1H-pyrazol-4-yl]-1,2-oxazole-4-carboxylate], the solubility at 24 h in data set [1] lay within 3 to 9.99 µM (≈ 1.55 to 5.15 µg/mL). For the same compound, the IC50 was less than 50 nM in data set [2]; less than 50 nM in data set [3] (Homo sapiens, PBMC); less than 50 nM in data set [4] (Homo sapiens, PBMC). In data set [5] (setting [6]), the half-life at 1 μM was 2 to 9.99 min.
With `[2H]C(C)(O)Cn1ncc(-c2onc(-c3c(F)cccc3Cl)c2-c2nccs2)c1C(F)(F)F` (racemic) [Example 31, 1-{4-[3-(2-chloro-6-fluorophenyl)-4-(1,3-thiazol-2-yl)-1,2-oxazol-5-yl]-5-(trifluoromethyl)-1H-pyrazol-1-yl}(2-^2H)propan-2-ol], in data set [1], the solubility at 24 h is less than 1 µM. Moreover, the IC50 is less than 50 nM in data set [2]; less than 50 nM in data set [3] (Homo sapiens, PBMC); less than 50 nM in data set [4] (Homo sapiens, PBMC). Also, the half-life at 1 μM in data set [5] (setting [6]) is 40 to 100 min.
For the compound `[2H]C(C)(O)Cn1ncc(-c2onc(-c3c(F)cccc3Cl)c2C(=O)OCC)c1C(F)(F)F` (racemic) [Example 32, ethyl 3-(2-chloro-6-fluorophenyl)-5-{1-[2-hydroxy(2-^2H)propyl]-5-(trifluoromethyl)-1H-pyrazol-4-yl}-1,2-oxazole-4-carboxylate], the solubility at 24 h in data set [1] is more than 10 µM. The IC50 in data set [2] was less than 50 nM; in data set [3] (Homo sapiens, PBMC) it was less than 50 nM; in data set [4] (Homo sapiens, PBMC), less than 50 nM. Further, the half-life at 1 μM in data set [5] (setting [6]) lay within 40 to 100 min.
`[2H]C(C)(O)Cn1ncc(-c2onc(-c3c(F)cccc3Cl)c2C(=O)OC)c1C(F)(F)F` (racemic) [Example 33, methyl 3-(2-chloro-6-fluorophenyl)-5-{1-[2-hydroxy(2-^2H)propyl]-5-(trifluoromethyl)-1H-pyrazol-4-yl}-1,2-oxazole-4-carboxylate]: the solubility at 24 h in data set [1] was more than 10 µM. In addition, the IC50 in data set [2] is less than 50 nM; in data set [3] (Homo sapiens, PBMC), less than 50 nM; in data set [4] (Homo sapiens, PBMC), less than 50 nM. Moreover, the half-life at 1 μM in data set [5] (setting [6]) is more than 100 min.
On to `[2H]C(C)(O)Cn1ncc(-c2onc(-c3c(F)cccc3Cl)c2COC)c1C(F)(F)F` (racemic) [Example 95, 1-{4-[3-(2-chloro-6-fluorophenyl)-4-(methoxymethyl)-1,2-oxazol-5-yl]-5-(trifluoromethyl)-1H-pyrazol-1-yl}(2-^2H)propan-2-ol], for which the solubility at 24 h in data set [1] is more than 10 µM. Moreover, the IC50 in data set [2] is 50 to 500 nM; in data set [3] (Homo sapiens, PBMC), 50 to 500 nM; in data set [4] (Homo sapiens, PBMC), 50 to 500 nM. Besides, in data set [5] (pH 7.4, human liver microsomes, 1 μM compound, 0.5 mg/ml HLM, 37° C.), the half-life at 1 μM was more than 100 min.
`CC(C)(O)Cn1ncc(-c2onc(-c3c(F)cccc3Cl)c2-c2nccs2)c1C(F)(F)F` [Example 1, 1-(4-(3-(2-chloro-6-fluorophenyl)-4-(thiazol-2-yl)isoxazol-5-yl)-5-(trifluoromethyl)-1H-pyrazol-1-yl)-2-methylpropan-2-ol]: in data set [1], the solubility at 24 h was more than 10 µM. Also, the IC50 is less than 50 nM in data set [2]; 50 to 500 nM in data set [3] (Homo sapiens, PBMC); 50 to 500 nM in data set [4] (Homo sapiens, PBMC). The half-life at 1 μM in data set [5] (setting [6]) is more than 100 min.
On to `OC1(Cn2ncc(-c3onc(-c4c(F)cccc4Cl)c3-c3nccs3)c2C(F)(F)F)CC1` [Example 2, 1-((4-(3-(2-chloro-6-fluorophenyl)-4-(thiazol-2-yl)isoxazol-5-yl)-5-(trifluoromethyl)-1H-pyrazol-1-yl)methyl)cyclopropanol], for which the solubility at 24 h in data set [1] lay in the range of 3 to 9.99 µM (≈ 1.45 to 4.84 µg/mL). The IC50 in data set [2] is less than 50 nM; in data set [3] (Homo sapiens, PBMC), 50 to 500 nM; in data set [4] (Homo sapiens, PBMC), less than 50 nM. Further, the half-life at 1 μM in data set [5] (setting [6]) was in the range of 10 to 40 min.
With `CCOC(=O)c1c(-c2c(F)cccc2Cl)noc1-c1cnn(CC(C)(C)O)c1C(F)(F)F` [Example 8, ethyl 3-(2-chloro-6-fluorophenyl)-5-(1-(2-hydroxy-2-methylpropyl)-5-(trifluoromethyl)-1H-pyrazol-4-yl)isoxazole-4-carboxylate], in data set [1], the solubility at 24 h was 3 to 9.99 µM (≈ 1.43 to 4.75 µg/mL). For the same compound, the IC50 is less than 50 nM in data set [2]; 50 to 500 nM in data set [3] (Homo sapiens, PBMC); less than 50 nM in data set [4] (Homo sapiens, PBMC). Besides, the half-life at 1 μM in data set [5] (setting [6]) was more than 100 min.
As to `CCOC(=O)c1c(-c2c(F)cccc2Cl)noc1-c1cnn(CCC(C)(C)O)c1C(F)(F)F` [Example 9, ethyl 3-(2-chloro-6-fluorophenyl)-5-[1-(3-hydroxy-3-methylbutyl)-5-(trifluoromethyl)-1H-pyrazol-4-yl]-1,2-oxazole-4-carboxylate], the solubility at 24 h in data set [1] was 3 to 9.99 µM (≈ 1.47 to 4.89 µg/mL). Moreover, the IC50 in data set [2] is less than 50 nM; in data set [3] (Homo sapiens, PBMC), less than 50 nM; in data set [4] (Homo sapiens, PBMC), less than 50 nM. Further, the half-life at 1 μM in data set [5] (setting [6]) was in the range of 40 to 100 min.
Take `CCOC(=O)c1c(-c2c(F)cccc2Cl)noc1-c1cnn([C@H]2C[C@@](C)(O)C2)c1C(F)(F)F` [Example 10, ethyl 3-(2-chloro-6-fluorophenyl)-5-[1-(3-hydroxy-3-methylcyclobutyl)-5-(trifluoromethyl)-1H-pyrazol-4-yl]-1,2-oxazole-4-carboxylate]: the solubility at 24 h in data set [1] lay within 3 to 9.99 µM (≈ 1.46 to 4.87 µg/mL). Also, the IC50 in data set [2] was less than 50 nM; in data set [3] (Homo sapiens, PBMC), less than 50 nM; in data set [4] (Homo sapiens, PBMC), less than 50 nM. For the same compound, the half-life at 1 μM in data set [5] (setting [6]) was more than 100 min.
Regarding `CCOC(=O)c1c(-c2c(F)cccc2Cl)noc1-c1cnn(C[C@@H](C)O)c1C(F)(F)F` [Example 12, ethyl 3-(2-chloro-6-fluorophenyl)-5-{1-[(2R)-2-hydroxypropyl]-5-(trifluoromethyl)-1H-pyrazol-4-yl}-1,2-oxazole-4-carboxylate], the solubility at 24 h in data set [1] is more than 10 µM. Also, the IC50 is less than 50 nM in data set [2]; less than 50 nM in data set [3] (Homo sapiens, PBMC); less than 50 nM in data set [4] (Homo sapiens, PBMC). The half-life at 1 μM in data set [5] (setting [6]) was in the range of 10 to 40 min.
`CCOC(=O)c1c(-c2c(F)cccc2Cl)noc1-c1cnn(C[C@H](C)O)c1C(F)(F)F` [Example 13, ethyl 3-(2-chloro-6-fluorophenyl)-5-(1-((2S)-2-hydroxypropyl)-5-(trifluoromethyl)-1H-pyrazol-4-yl)-1,2-oxazole-4-carboxylate]: in data set [1], the solubility at 24 h was more than 10 µM. The IC50 in data set [2] was less than 50 nM; in data set [3] (Homo sapiens, PBMC), less than 50 nM; in data set [4] (Homo sapiens, PBMC), less than 50 nM. Also, the half-life at 1 μM in data set [5] (setting [6]) was 40 to 100 min.
Turning to `C[C@]1(O)C[C@H](n2ncc(-c3onc(-c4c(F)cccc4Cl)c3C(=O)OC3CC3)c2C(F)(F)F)C1` [Example 51, cyclopropyl 3-(2-chloro-6-fluorophenyl)-5-{1-[3-hydroxy-3-methylcyclobutyl]-5-(trifluoromethyl)-1H-pyrazol-4-yl}-1,2-oxazole-4-carboxylate], the solubility at 24 h in data set [1] was 3 to 9.99 µM (≈ 1.5 to 4.99 µg/mL). Also, the results for the IC50 in data set [3] and in data set [4] were less than 50 nM and 50 to 500 nM, respectively. Besides, the half-life at 1 μM in data set [5] (setting [6]) was 40 to 100 min.
With `COCc1c(-c2c(F)cccc2Cl)noc1-c1cnn(CC(C)(C)O)c1C(F)(F)F` [Example 65, 1-(4-(3-(2-chloro-6-fluorophenyl)-4-(methoxymethyl)isoxazol-5-yl)-5-(trifluoromethyl)-1H-pyrazol-1-yl)-2-methylpropan-2-ol], the solubility at 24 h in data set [1] was more than 10 µM. For the same compound, the IC50 in data set [2] lay in the range of 500 to 5000 nM; in data set [3] (Homo sapiens, PBMC), 500 to 5000 nM; in data set [4] (Homo sapiens, PBMC), 500 to 5000 nM.
For `COCc1c(-c2c(F)cccc2Cl)noc1-c1cnn(C[C@@H](C)O)c1C(F)(F)F` [Example 66, (2R)-1-(4-(3-(2-chloro-6-fluorophenyl)-4-(methoxymethyl)isoxazol-5-yl)-5-(trifluoromethyl)-1H-pyrazol-1-yl)propan-2-ol], the solubility at 24 h in data set [1] is more than 10 µM. The IC50 is less than 50 nM in data set [2]; 50 to 500 nM in data set [3] (Homo sapiens, PBMC); 50 to 500 nM in data set [4] (Homo sapiens, PBMC).
Turning to `CCN(CC)CCOc1cccc(-c2noc(-c3cnn(CCC(C)(C)O)c3C)c2-c2ncccn2)c1Cl` [Example 144, 4-[4-(3-{2-chloro-3-[2-(diethylamino)ethoxy]phenyl}-4-(pyrimidin-2-yl)-1,2-oxazol-5-yl)-5-methyl-1H-pyrazol-1-yl]-2-methylbutan-2-ol], in data set [1], the solubility at 24 h was more than 10 µM. The IC50 lay within 50 to 500 nM in data set [2]; 500 to 5000 nM in data set [3] (Homo sapiens, PBMC); 500 to 5000 nM in data set [4] (Homo sapiens, PBMC).
